In patent publication US20120245111A1, “FLAVANONES-CONTAINING FOOD COMPOSITIONS” (NESTEC S.A., priority 2009, published 2012):

Test: Particle size distribution of hesperidin in water by laser diffraction (Malvern Mastersizer 2000)
Format: physicochemical
Method: The particle size distribution is observed using a microscopy optic LEICA DMR (mode Differential Interference Contrast and polarisation). The particle size distribution is measured by laser diffraction using a Malvern Mastersizer 2000.
The hesperidin obtainable by the heat treatment processes of the invention has a smaller size distribution compared to commercially available hesperidin as illustrated in FIG. 3.
For variant 3 (140° C., 60 s) and variant 4 (160° C., 10 s), the cumulative distribution of particle size below 20 microns increases to 99%. Thus, it can be seen that the heat treatment has an influence on the particle size of hesperidin and on the conformation of hesperidin particles. Therefore, sedimentation is avoided.

COc1ccc([C@@H]2CC(=O)c3c(O)cc(O[C@@H]4O[C@H](CO[C@@H]5O[C@@H](C)[C@H](O)[C@@H](O)[C@H]5O)[C@@H](O)[C@H](O)[C@H]4O)cc3O2)cc1O [commercially available hesperidin, hesperidin]
% of cumulative distribution of hesperidin particle below 20 microns (0.5% hesperidin in water, before or after UHT treatment): 40%
crystal size distribution range (commercially available hesperidin extract, crystalline form): 0.1 to 160 microns
